Reference: PubChem BioAssay (NCI)
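All cell lines were grown in 96-well plates and treated with compound for 48 hours. At the TGI there is no net growth.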

Experiments:
Test in all cases: growth of human tumour cells (NCI), 48 h
K-562 leukemia = system: K-562 leukemia
SK-MEL-5 melanoma = system: SK-MEL-5 melanoma
BT-549 breast = system: BT-549 breast
A549 NSCLC = system: A549 NSCLC
IGROV1 ovarian = system: IGROV1 ovarian
KM12 colon = system: KM12 colon
SK-OV-3 ovarian = system: SK-OV-3 ovarian
M14 melanoma = system: M14 melanoma
UO-31 renal = system: UO-31 renal
U251 CNS = system: U251 CNS
SF-539 CNS = system: SF-539 CNS
OVCAR-4 ovarian = system: OVCAR-4 ovarian
RPMI-8226 leukemia = system: RPMI-8226 leukemia
COLO 205 colon = system: COLO 205 colon
HCT-116 colon = system: HCT-116 colon
UACC-62 melanoma = system: UACC-62 melanoma
NCI-H23 lung = system: NCI-H23 lung
PC-3 prostate = system: PC-3 prostate
SNB-75 CNS = system: SNB-75 CNS
OVCAR-5 ovarian = system: OVCAR-5 ovarian
M19-MEL melanoma = system: M19-MEL melanoma
LXFL 529 NSCLC = system: LXFL 529 NSCLC
DU-145 prostate = system: DU-145 prostate
HOP-62 NSCLC = system: HOP-62 NSCLC
DMS 273 small cell lung = system: DMS 273 small cell lung
HT29 colon = system: HT29 colon
MDA-MB-435 = system: MDA-MB-435
MALME-3M melanoma = system: MALME-3M melanoma
HCC-2998 colon = system: HCC-2998 colon
SW-620 colon = system: SW-620 colon
CCRF-CEM leukemia = system: CCRF-CEM leukemia
HOP-92 NSCLC = system: HOP-92 NSCLC
UACC-257 melanoma = system: UACC-257 melanoma
SR leukemia = system: SR leukemia
DLD-1 colon = system: DLD-1 colon
MCF7 breast = system: MCF7 breast
MDA-N = system: MDA-N
RXF 393 renal = system: RXF 393 renal
MDA-MB-231 breast = system: MDA-MB-231 breast
NCI/ADR-RES ovarian = system: NCI/ADR-RES ovarian
SF-295 CNS = system: SF-295 CNS
OVCAR-8 ovarian = system: OVCAR-8 ovarian
NCI-H522 lung = system: NCI-H522 lung
SNB-19 CNS = system: SNB-19 CNS
SF-268 CNS = system: SF-268 CNS
LOX IMVI melanoma = system: LOX IMVI melanoma
MOLT-4 leukemia = system: MOLT-4 leukemia
786-0 renal = system: 786-0 renal
SN12C renal = system: SN12C renal
A498 renal = system: A498 renal
SNB-78 CNS = system: SNB-78 CNS
NCI-H226 lung = system: NCI-H226 lung
KM20L2 colon = system: KM20L2 colon
HL-60(TB) leukemia = system: HL-60(TB) leukemia
DMS 114 small cell lung = system: DMS 114 small cell lung
TK-10 renal = system: TK-10 renal
T-47D breast = system: T-47D breast
OVCAR-3 ovarian = system: OVCAR-3 ovarian
CAKI-1 renal = system: CAKI-1 renal
NCI-H460 lung = system: NCI-H460 lung
HS 578T breast = system: HS 578T breast
ACHN renal = system: ACHN renal
XF 498 CNS = system: XF 498 CNS
HOP-18 NSCLC = system: HOP-18 NSCLC
SK-MEL-2 melanoma = system: SK-MEL-2 melanoma
HCT-15 colon = system: HCT-15 colon
SK-MEL-28 melanoma = system: SK-MEL-28 melanoma
EKVX NSCLC = system: EKVX NSCLC
RXF-631 renal = system: RXF-631 renal

## C/C=C(\N=C=S)C(=O)OC1C(COC(C)=O)OC([C@]2(O)CC(=O)C(=N)C(C(=O)O)=C2O)C(O)C1OC1CC(OC)C(O)([C@@H](C)OC(=O)[C@@H](C)CC)C(C)O1 (stereo partly drawn)
K-562 leukemia
  TGI: 14.6 µM
SK-MEL-5 melanoma
  TGI: 28.6 µM
BT-549 breast
  TGI: 16.5 µM
A549 NSCLC
  TGI: > 80.6 µM
IGROV1 ovarian
  TGI: 36 µM
KM12 colon
  TGI: 19.9 µM
SK-OV-3 ovarian
  TGI: 52 µM
M14 melanoma
  TGI: 30.9 µM
UO-31 renal
  TGI: 33.3 µM
U251 CNS
  TGI: 21.8 µM
SF-539 CNS
  TGI: 17.5 µM
OVCAR-4 ovarian
  TGI: 19.4 µM
RPMI-8226 leukemia
  TGI: 7.19 µM
COLO 205 colon
  TGI: 13.3 µM
HCT-116 colon
  TGI: 21.9 µM
UACC-62 melanoma
  TGI: 10.3 µM
NCI-H23 lung
  TGI: 23.9 µM
PC-3 prostate
  TGI: 32.7 µM
SNB-75 CNS
  TGI: 34.8 µM
OVCAR-5 ovarian
  TGI: 40.4 µM
M19-MEL melanoma
  TGI: 6.24 µM
LXFL 529 NSCLC
  TGI: 4.16 µM
DU-145 prostate
  TGI: 39.2 µM
HOP-62 NSCLC
  TGI: 45.7 µM
DMS 273 small cell lung
  TGI: 32.1 µM
HT29 colon
  TGI: 23.6 µM
MDA-MB-435
  TGI: 35.7 µM
MALME-3M melanoma
  TGI: 22.8 µM
HCC-2998 colon
  TGI: 40.1 µM
SW-620 colon
  TGI: 8.33 µM
CCRF-CEM leukemia
  TGI: 7.45 µM
HOP-92 NSCLC
  TGI: 9.77 µM
UACC-257 melanoma
  TGI: 29.9 µM
SR leukemia
  TGI: 23.2 µM
DLD-1 colon
  TGI: 24.9 µM
MCF7 breast
  TGI: 38.4 µM
MDA-N
  TGI: 26.5 µM
RXF 393 renal
  TGI: 15.5 µM
MDA-MB-231 breast
  TGI: 51.7 µM
NCI/ADR-RES ovarian
  TGI: > 100 µM
SF-295 CNS
  TGI: 37.2 µM
OVCAR-8 ovarian
  TGI: 15 µM
NCI-H522 lung
  TGI: 5.32 µM
SNB-19 CNS
  TGI: 31.5 µM
SF-268 CNS
  TGI: 23.2 µM
LOX IMVI melanoma
  TGI: 17.2 µM
MOLT-4 leukemia
  TGI: 14 µM
786-0 renal
  TGI: 26.6 µM
SN12C renal
  TGI: 40 µM
A498 renal
  TGI: 62.5 µM
SNB-78 CNS
  TGI: 26.4 µM
NCI-H226 lung
  TGI: 39.5 µM
KM20L2 colon
  TGI: 18.5 µM
HL-60(TB) leukemia
  TGI: 5.34 µM
DMS 114 small cell lung
  TGI: 14.9 µM
TK-10 renal
  TGI: 31.4 µM
T-47D breast
  TGI: 42.1 µM
OVCAR-3 ovarian
  TGI: 35.7 µM
CAKI-1 renal
  TGI: 35 µM
NCI-H460 lung
  TGI: 47.5 µM
HS 578T breast
  TGI: > 96.1 µM
ACHN renal
  TGI: 33.1 µM
XF 498 CNS
  TGI: 5.92 µM
HOP-18 NSCLC
  TGI: 30.4 µM
SK-MEL-2 melanoma
  TGI: 20 µM
HCT-15 colon
  TGI: 37.1 µM
SK-MEL-28 melanoma
  TGI: 18.5 µM
EKVX NSCLC
  TGI: 30.3 µM

## Cc1ccccc1NC(=O)/C(=N\NC(N)=S)C(C#N)c1ccccc1 (stereo not drawn)
K-562 leukemia
  TGI: > 100 µM
SK-MEL-5 melanoma
  TGI: > 100 µM
A549 NSCLC
  TGI: > 100 µM
IGROV1 ovarian
  TGI: > 100 µM
KM12 colon
  TGI: > 100 µM
SK-OV-3 ovarian
  TGI: > 100 µM
M14 melanoma
  TGI: > 100 µM
UO-31 renal
  TGI: > 100 µM
U251 CNS
  TGI: > 100 µM
SF-539 CNS
  TGI: > 100 µM
OVCAR-4 ovarian
  TGI: > 100 µM
RPMI-8226 leukemia
  TGI: > 100 µM
COLO 205 colon
  TGI: > 100 µM
HCT-116 colon
  TGI: > 100 µM
UACC-62 melanoma
  TGI: > 100 µM
NCI-H23 lung
  TGI: > 100 µM
SNB-75 CNS
  TGI: > 100 µM
OVCAR-5 ovarian
  TGI: > 100 µM
M19-MEL melanoma
  TGI: > 100 µM
LXFL 529 NSCLC
  TGI: > 100 µM
HOP-62 NSCLC
  TGI: > 100 µM
DMS 273 small cell lung
  TGI: > 100 µM
HT29 colon
  TGI: > 100 µM
MALME-3M melanoma
  TGI: > 100 µM
HCC-2998 colon
  TGI: > 100 µM
SW-620 colon
  TGI: > 100 µM
CCRF-CEM leukemia
  TGI: > 100 µM
HOP-92 NSCLC
  TGI: > 100 µM
UACC-257 melanoma
  TGI: > 100 µM
SR leukemia
  TGI: > 100 µM
DLD-1 colon
  TGI: > 100 µM
RXF 393 renal
  TGI: > 100 µM
SF-295 CNS
  TGI: > 100 µM
OVCAR-8 ovarian
  TGI: > 100 µM
NCI-H522 lung
  TGI: > 100 µM
SNB-19 CNS
  TGI: > 100 µM
SF-268 CNS
  TGI: > 100 µM
LOX IMVI melanoma
  TGI: > 100 µM
MOLT-4 leukemia
  TGI: > 100 µM
786-0 renal
  TGI: > 100 µM
SN12C renal
  TGI: > 100 µM
A498 renal
  TGI: > 100 µM
SNB-78 CNS
  TGI: > 100 µM
NCI-H226 lung
  TGI: > 100 µM
KM20L2 colon
  TGI: > 100 µM
HL-60(TB) leukemia
  TGI: > 100 µM
DMS 114 small cell lung
  TGI: > 100 µM
TK-10 renal
  TGI: > 100 µM
OVCAR-3 ovarian
  TGI: > 100 µM
NCI-H460 lung
  TGI: > 100 µM
ACHN renal
  TGI: > 100 µM
RXF-631 renal
  TGI: > 100 µM
HOP-18 NSCLC
  TGI: > 100 µM
SK-MEL-2 melanoma
  TGI: > 100 µM
HCT-15 colon
  TGI: > 100 µM
SK-MEL-28 melanoma
  TGI: > 100 µM
EKVX NSCLC
  TGI: > 100 µM

## CC1(C)C(=O)OC(n2cc(F)c(=O)[nH]c2=O)C1=O (stereo not drawn)
K-562 leukemia
  TGI: > 100 µM
A549 NSCLC
  TGI: > 100 µM
KM12 colon
  TGI: > 100 µM
SK-OV-3 ovarian
  TGI: > 100 µM
M14 melanoma
  TGI: > 100 µM
UO-31 renal
  TGI: > 100 µM
U251 CNS
  TGI: > 100 µM
SF-539 CNS
  TGI: > 100 µM
OVCAR-4 ovarian
  TGI: > 100 µM
RPMI-8226 leukemia
  TGI: > 100 µM
COLO 205 colon
  TGI: > 100 µM
HCT-116 colon
  TGI: > 100 µM
UACC-62 melanoma
  TGI: > 100 µM
NCI-H23 lung
  TGI: > 100 µM
SNB-75 CNS
  TGI: > 100 µM
OVCAR-5 ovarian
  TGI: > 100 µM
M19-MEL melanoma
  TGI: > 100 µM
LXFL 529 NSCLC
  TGI: > 100 µM
HOP-62 NSCLC
  TGI: > 100 µM
HT29 colon
  TGI: > 100 µM
MALME-3M melanoma
  TGI: > 100 µM
HCC-2998 colon
  TGI: > 100 µM
SW-620 colon
  TGI: > 100 µM
CCRF-CEM leukemia
  TGI: > 100 µM
HOP-92 NSCLC
  TGI: 98.6 µM
UACC-257 melanoma
  TGI: > 100 µM
DLD-1 colon
  TGI: > 100 µM
RXF 393 renal
  TGI: > 100 µM
SF-295 CNS
  TGI: > 100 µM
OVCAR-8 ovarian
  TGI: > 100 µM
NCI-H522 lung
  TGI: > 100 µM
SNB-19 CNS
  TGI: > 100 µM
SF-268 CNS
  TGI: > 100 µM
LOX IMVI melanoma
  TGI: > 100 µM
MOLT-4 leukemia
  TGI: > 100 µM
786-0 renal
  TGI: > 100 µM
SN12C renal
  TGI: > 100 µM
A498 renal
  TGI: > 100 µM
SNB-78 CNS
  TGI: > 100 µM
NCI-H226 lung
  TGI: > 100 µM
KM20L2 colon
  TGI: > 100 µM
HL-60(TB) leukemia
  TGI: > 100 µM
DMS 114 small cell lung
  TGI: > 100 µM
TK-10 renal
  TGI: > 100 µM
OVCAR-3 ovarian
  TGI: > 100 µM
NCI-H460 lung
  TGI: > 100 µM
ACHN renal
  TGI: > 100 µM
XF 498 CNS
  TGI: > 100 µM
HOP-18 NSCLC
  TGI: > 100 µM
SK-MEL-2 melanoma
  TGI: > 100 µM
HCT-15 colon
  TGI: > 100 µM
SK-MEL-28 melanoma
  TGI: > 100 µM
EKVX NSCLC
  TGI: > 100 µM
